Data as given in US20130310347A1, “MULTI-MODALITY MOLECULAR IMAGING HIGH-THROUGHPUT ASSAY FOR IDENTIFYING HEAT SHOCK PROTEIN 90 (HSP90) INHIBITORS” (The Board of Trustees of the Leland Stanford Junior …, priority 2012, published 2013).

Legend:
[1] = system: Hsp90 client proteins (Raf-1, total and phosphorylated Akt); assay: Western blotting of Hsp90 client proteins in 293T cells; format: cell-based, human; conditions: 2 μM, 24 h, positive control
Procedure: FIG. 5A is a digital image of a western blot analysis illustrating the effect of lead compounds on the expression of Hsp90 client proteins. 293T cells stably expressing Hsp90(α/β)/p23 split reporters were treated with carrier control or compounds CP1, CP9, or CP18 (5 μM each) for 24 h. The known Hsp90 inhibitor PU-H71 (2 μM) was used as a positive control. The expression of Hsp90 client proteins (Raf-1, total and phosphorylated Akt) was determined by western blotting. α-Tubulin was used as a loading control.
Cells treated with PU-H71 (2 μM) served as a positive control.
Cells treated with 2 μM of PU-H71 served as a positive control. Western blotting of Hsp70, phosphorylated and total Akt and co-immunoprecipitation of Hsp90(α/β)/p23 interactions was performed as described Inglese et al., (2006) Proc. Nat. Acad. Sci. U.S.A. 103: 11473-11478, incorporated herein by reference in its entirety. The expression of Raf-1 was determined using rabbit polyclonal antibodies against Raf-1 (0.5 μg/ml, Abcam).

[2] = system: DOX-resistant V79/ADR lung cancer cells; assay: Sensitivity to DOX, Alamar Blue assay; format: cell-based; conditions: DOX 0.31-10 μM with inhibitor (CP9 8 μM), 24 h
Procedure: FIGS. 13A-13C illustrate the inhibition of cell proliferation of DOX-resistant V79/ADR lung cancer cells by CP9 and the Hsp90 inhibitor PU-H71 in cell culture. V79 lung cancer cells and […] cells that are resistant to DOX were treated with DOX (0.31-10 μM) in the presence or absence of CP9 (8 μM) for 24 h before determination of cell number by an Alamar Blue assay.
Both Hsp90 isoforms (α and β) are expressed in cancer cells, but Hsp90β is constitutively expressed, whereas the expression of Hsp90α is highly inducible during stress and drug treatment. Using the genetically encoded split Renilla reporter system according to the disclosure, it was possible to decipher the individual contributions of each isoform in determining the sensitivity of Hsp90 inhibitors. It was reported that the transcription of MDR1 is regulated by HSF-1, which in turn is regulated by Hsp90α (Trepel et al., (2010) Nat. Rev. Cancer 10: 537-549). To determine the biological significance of CP9 selectivity in inhibiting Hsp90α/p23 interactions, V79 lung cancer cells and V79/ADR cells that overexpress multidrug-resistant protein and are insensitive to growth inhibition by doxorubicin (DOX) were used. V79 and V79/ADR cells were treated with DOX alone or in the presence of CP9. On the other hand, the addition of CP9 sensitized V79/ADR cells to DOX, as shown by the decrease in cell proliferation relative to treatment with DOX alone, as shown in FIG. 13B. […] The results also are consistent with the observation that derivatives of Hsp90 inhibitor peptides sensitize cancer cells with overexpression of MDR to epirubicin (a class of anthracyclines that includes DOX) (Molnar et al., (2007) In Vivo 21: 429-433).

## CC(C)NCCCn1c(Sc2cc3c(cc2I)OCO3)nc2c(N)ncnc21 [PU-H71, reference compound]
[1]
  levels of Hsp90 client proteins (pAkt/total Akt, Raf-1): decreased levels of Raf-1, pAkt and total Akt
[2]
  sensitivity of drug-resistant V79/ADR cells to DOX: restored the sensitivity
